US20170333591A9, “ABSORBENT ARTICLE COMPRISING MALODOR REDUCTION COMPOSITIONS” (The Procter & Gamble Company, priority 2014, published 2017)

Experiment: Log of liquid dish neat product liquid-air partition coefficient
Type: physicochemical
Conditions: for Log of liquid dish neat product liquid-air partition coefficient (Comment Code K/L): code letter within the Comment Code cell; for Log of liquid dish neat product liquid-air partition coefficient (Comment Code): code letters K/L of the Comment Code

Structure (SMILES)	Log of liquid dish neat product liquid-air partition coefficient (Comment Code K/L)	Comment Code: Log of liquid dish neat product liquid-air partition coefficient	Log of liquid dish neat product liquid-air partition coefficient (Comment Code)
C=CCCCCCCCCO [Material 470]	K (Log of liquid dish neat product liquid-air partition coefficient greater than or equal to 7)		
CCCCCCCCCCOC(=O)CC [Material 471]	K (Log of liquid dish neat product liquid-air partition coefficient greater than or equal to 7)		
CCCCCCCCCC(OCC)OCC [Material 473]	K (Log of liquid dish neat product liquid-air partition coefficient greater than or equal to 7)		
OC1CCC2CCCCC2C1 (stereo not shown) [Material 474]	K (Log of liquid dish neat product liquid-air partition coefficient greater than or equal to 7)		
CC=CC(=O)OC(C)C1CCCCC1 (stereo not shown) [Material 475]	K (Log of liquid dish neat product liquid-air partition coefficient greater than or equal to 7)		
CC(C=O)Cc1ccc(C(C)C)cc1 (stereo not shown) [Material 478]	K (Log of liquid dish neat product liquid-air partition coefficient greater than or equal to 7)		
O=C1CCCCCCCCCCCCCC1 [Material 480]	K (Log of liquid dish neat product liquid-air partition coefficient greater than or equal to 7)		
CCCC(=O)OC1CC2CC1C1CC=CC21 (stereo not shown) [Material 484]	K (Log of liquid dish neat product liquid-air partition coefficient greater than or equal to 7)	K (Log of liquid dish neat product liquid-air partition coefficient greater than or equal to 7)	
CC1(C)CCCC2=C1CC(C=O)CC2 (stereo not shown) [Material 486]	K (Log of liquid dish neat product liquid-air partition coefficient greater than or equal to 7)		
CC(C)C(=O)OC1CC2CC1C1C=CCC21 (stereo not shown) [Material 487]	K (Log of liquid dish neat product liquid-air partition coefficient greater than or equal to 7)	K (Log of liquid dish neat product liquid-air partition coefficient greater than or equal to 7)	
C=CC1(C)Cc2occ(C)c2CC1C(=C)C (stereo not shown) [Material 488]	K (Log of liquid dish neat product liquid-air partition coefficient greater than or equal to 7)	K (Log of liquid dish neat product liquid-air partition coefficient greater than or equal to 7)	
CC(C)c1ccc(CO)cc1 [Material 491]	K (Log of liquid dish neat product liquid-air partition coefficient greater than or equal to 7)		
COc1cc(C)ccc1O [Material 492]		K (Log of liquid dish neat product liquid-air partition coefficient greater than or equal to 7)	
c1ccc2occc2c1 [Material 493]	K (Log of liquid dish neat product liquid-air partition coefficient greater than or equal to 7)		
CC(C)(O)CCC1CCCCC1 [Material 496]		K (Log of liquid dish neat product liquid-air partition coefficient greater than or equal to 7)	
c1ccc(CCCc2ccccn2)cc1 [Material 497]	K (Log of liquid dish neat product liquid-air partition coefficient greater than or equal to 7)		
CCCCCCCCCCCC#N [Material 498]	K (Log of liquid dish neat product liquid-air partition coefficient greater than or equal to 7)		
C=CC(C)(C#N)Cc1ccccc1 (stereo not shown) [Material 504]		K (Log of liquid dish neat product liquid-air partition coefficient greater than or equal to 7)	
CC(=CC#N)CCc1ccccc1 [Material 505]	K (Log of liquid dish neat product liquid-air partition coefficient greater than or equal to 7)		
CC(C)=CCCC(C)=CC1OCC(C)O1 (stereo not shown) [Material 519]	K (Log of liquid dish neat product liquid-air partition coefficient greater than or equal to 7)		
COC(C=C(C)CCC=C(C)C)OC [Material 520]	K (Log of liquid dish neat product liquid-air partition coefficient greater than or equal to 7)		
CCOC(C=C(C)CCC=C(C)C)OCC [Material 521]	K (Log of liquid dish neat product liquid-air partition coefficient greater than or equal to 7)		
C/C=C\c1ccc(O)c(OC)c1 [Material 528]		K (Log of liquid dish neat product liquid-air partition coefficient greater than or equal to 7)	

Structure (SMILES)	Log of liquid dish neat product liquid-air partition coefficient (Comment Code K/L)	Comment Code: Log of liquid dish neat product liquid-air partition coefficient	Log of liquid dish neat product liquid-air partition coefficient (Comment Code)
C=C(C)C1CC=C(C)C(O)C1 (stereo not shown) [Material 531]	K (Log of liquid dish neat product liquid-air partition coefficient greater than or equal to 7)		
CC/C=C\CCOC(=O)C/C=C\CC [Material 534]	K (Log of liquid dish neat product liquid-air partition coefficient greater than or equal to 7)		
C/C=C(\C)C(=O)OCC/C=C\CC [Material 536]		K (Log of liquid dish neat product liquid-air partition coefficient greater than or equal to 7)	
CC/C=C\CCOC(=O)c1ccccc1 [Material 541]	K (Log of liquid dish neat product liquid-air partition coefficient greater than or equal to 7)		
CC/C=C\C/C=C\CCO [Material 546]	K (Log of liquid dish neat product liquid-air partition coefficient greater than or equal to 7)		
CCC(=O)OCC=Cc1ccccc1 [Material 548]	K (Log of liquid dish neat product liquid-air partition coefficient greater than or equal to 7)		
N#CC=Cc1ccccc1 [Material 549]		K (Log of liquid dish neat product liquid-air partition coefficient greater than or equal to 7)	
CC(C)C(=O)OCC=Cc1ccccc1 [Material 550]	K (Log of liquid dish neat product liquid-air partition coefficient greater than or equal to 7)		
O=COCC=Cc1ccccc1 [Material 551]	K (Log of liquid dish neat product liquid-air partition coefficient greater than or equal to 7)		
CC(=O)OCC=Cc1ccccc1 [Material 553]	K (Log of liquid dish neat product liquid-air partition coefficient greater than or equal to 7)		
O=C/C=C/c1ccccc1 [Material 554]		K (Log of liquid dish neat product liquid-air partition coefficient greater than or equal to 7)	
OCC=Cc1ccccc1 [Material 555]	K (Log of liquid dish neat product liquid-air partition coefficient greater than or equal to 7)		
N#C/C=C/c1ccccc1 [Material 556]		K (Log of liquid dish neat product liquid-air partition coefficient greater than or equal to 7)	
Cc1cc(O)cc(C)c1Cl [Material 557]		K (Log of liquid dish neat product liquid-air partition coefficient greater than or equal to 7)	
C=CCCC(=O)/C=C/C1C(C)=CCCC1(C)C (stereo not shown) [Material 559]	K (Log of liquid dish neat product liquid-air partition coefficient greater than or equal to 7)		
CC1=C(CCC(C)C=O)C(C)(C)CCC1 (stereo not shown) [Material 560]	K (Log of liquid dish neat product liquid-air partition coefficient greater than or equal to 7)		
CC(=O)c1cc(C(C)(C)C)cc2c1CCC2(C)C [Material 563]			K (Log of liquid dish neat product liquid-air partition coefficient greater than or equal to 7)
COC1(C)CCC23CC1C(C)(C)C2CCC3C (stereo not shown) [Material 565]		K (Log of liquid dish neat product liquid-air partition coefficient greater than or equal to 7)	K (Log of liquid dish neat product liquid-air partition coefficient greater than or equal to 7)
CC1CCC2C(C)(C)C3CC12CCC3(C)OC=O (stereo not shown) [Material 566]		K (Log of liquid dish neat product liquid-air partition coefficient greater than or equal to 7)	K (Log of liquid dish neat product liquid-air partition coefficient greater than or equal to 7)
CC(=O)O[C@]1(C)CC[C@@]23C[C@@H]1C(C)(C)[C@@H]2CC[C@H]3C [Material 567]		K (Log of liquid dish neat product liquid-air partition coefficient greater than or equal to 7)	K (Log of liquid dish neat product liquid-air partition coefficient greater than or equal to 7)
CC1=CCCC2(C)OC2CCC(C)=CCC1 (stereo not shown) [Material 568]			K (Log of liquid dish neat product liquid-air partition coefficient greater than or equal to 7)
C[C@@H]1CC[C@H]2C(C)(C)[C@H]3C[C@@]12CC[C@@]3(C)O [Material 569]		K (Log of liquid dish neat product liquid-air partition coefficient greater than or equal to 7)	K (Log of liquid dish neat product liquid-air partition coefficient greater than or equal to 7)
